Assays:
[1] = Stereospecificity of the proliferation effect (D-isomer vs L-isomer); assay type: cell-based; details: 25 μM dose, p<0.001, FIG. 2
Source text: (§1) Cell proliferation assays. […] 5:69-84, 1995.
To assess whether ajulemic acid's effect was receptor-mediated, a preparation 95% enriched in the D-isomer of ajulemic acid was used to examine the stereospecificity of the effect observed above.

[2] = test system: HS578T; test: 48 hour MTT assay, HS578T (breast); assay type: cell-based, human; details: 25 μM
Method: as §1
(§2) The proliferation of a number of human cell lines derived from a variety of cancer types (brain, breast, bladder, lung, and prostate) was tested for sensitivity to 25 μM of each agent for 48 hours.

[3] = test system: HT1376; test: 48 hour MTT assay, HT1376 (bladder); assay type: cell-based, human; details: 25 μM
Method: as §1, §2

[4] = test system: J82; test: 48 hour MTT assay, J82 (bladder); assay type: cell-based, human; details: 25 μM
Method: as §1, §2

[5] = test system: U87; test: 48 hour MTT assay, U87 (brain); assay type: cell-based, human; details: 25 μM
Method: as §1, §2

[6] = test system: U118; test: 48 hour MTT assay, U118 (brain); assay type: cell-based, human; details: 25 μM
Method: as §1, §2

[7] = test system: A172; test: 48 hour MTT assay, A172 (brain); assay type: cell-based, human; details: 25 μM
Method: as §1, §2

[8] = test system: C6 cells; test: Cell morphology (phase and electron microscopy), C6 cells; assay type: cell-based
Method: (§3) In order to investigate this effect further, the effect of ajulemic acid on cell cycle kinetics was assessed. C6 glioma cells were incubated for 24 hours in media containing 0.5% serum to synchronize them in G1/G0. The cells were then exposed to media containing 10% serum either with or without 25 μM ajulemic acid for two days.
Third, another distinctive feature of ajulemic acid's antitumor effect was the appearance of retractile bodies that could be easily visualized with phase microscopy. Both the number of cells that had refractile bodies as well as the number of refractile bodies/cell increased over time. After 48 hours, 83% of ajulemic acid-treated C6 cells had one or more refractile bodies compared to 27% to THC-treated cells (p<0.001, Chi-square analysis). The mean number of refractile bodies per cell was also much higher for ajulemic acid-treated cells compared to THC-treated cells (1.78±1.6 vs. 0.22±0.5 per cell, p<0.001, t-test).
To further explore the nature of the cell enlargement and refractile bodies, cells were examined under electron microscopy. […] In fact, these cells appeared metabolically active. […] Moreover, ajulemic acid-treated cells were enlarged and contained large lipid droplets, the identity of which was confirmed by […].

[9] = test system: PC3; test: 48 hour MTT assay, PC3 (prostate); assay type: cell-based, human; details: 25 μM
Method: as §1, §2

[10] = test system: Du145; test: 48 hour MTT assay, Du145 (prostate); assay type: cell-based, human; details: 25 μM
Method: as §1, §2

[11] = test system: human cell lines derived from a variety of cancer types (brain, breast, bladder, lung, and prostate); test: 48 hour MTT assay, panel of ten human cancer cell lines (mean); assay type: cell-based; details: 25 μM; for Inhibition level (mean±SD) over the human cancer cell lines: 48 hours, mean±SD of ten lines
Method: as §1, §2

[12] = test system: U373; test: 48 hour MTT assay, U373 (brain); assay type: cell-based, human; details: 25 μM
Method: as §1, §2

[13] = test system: Calu6; test: 48 hour MTT assay, Calu6 (lung); assay type: cell-based, human; details: 25 μM
Method: as §1, §2

[14] = test system: C6 glioma cells; test: Co-incubation of C6 glioma cells with a CB1 antagonist; assay type: cell-based; details: 3.2 μM of a specific CB1 antagonist
Source text: as §1
First, the compound's inhibition of cell proliferation was not reversible with a CB1 antagonist.

[15] = test system: WI38 cells; test: Refractile bodies by phase microscopy, WI38 cells; assay type: cell-based, rat; details: same length of time and dosage (48 hours)
[16] = test system: C6 cells; test: Viability by trypan blue exclusion; assay type: cell-based; details: ajulemic acid-treated cells
[17] = test system: PKC activity in C6 cells; test: Protein kinase C (PKC) assay; assay type: cell-based; details: 25 μM
Method: Protein kiniase C (PKC) assay. Cells were transferred into MEM media (0.5% serum) and cultured overnight. The next day, cells were treated with either DMSO or 25 μM ajulemic acid for the specified incubation time, after which the plates were trypsinized. 5×10^6 trypsinized cells were assayed for PKC activity using a kit (Calbiochem, cat. no. 53984).
Because diacyl glycerol (DAG) is an important signal transducer of protein kinase C, the effect of ajulemic acid treatment on the PKC activity in C6 cells was examined. […] At least two alternative explanations for this observation exist: (1) the PKC isozymes that were stimulated were those with slow growth, such as PKCδ; and (2) the increased DAG was modulating some other downstream mediator, such as β-chimaerin, to a greater extent such that the balance is towards anti-proliferation.

[18] = test system: normal fibroblast cell line WI38; test: MTT cell proliferation assay, WI38 cells; details: 25 μM, two days, three different experiments
[19] = test system: C6 glioma cells; test: MTT cell proliferation assay, C6 glioma cells; assay type: cell-based
Method: as §1, §2

[20] = test system: C6 glioma cells; test: Flow cytometry/cell cycle analysis; assay type: cell-based; details: 25 μM, two days in 10% serum after synchronization; control 4.4 ± 0.3
Method: Flow cytometry/cell cycle analysis. For flow cytometry, cells were grown in low serum (0.5%) for two days to synchronize cells in G0/G1, after which they were placed in high serum (10%) for two days. The cells were then labeled with propidium iodide and fixed in 4% paraformaldehyde. Cells were examined using a MoFlo Facs sorter for DNA content.
as §3

[21] = test system: human glioma cell line U87; test: In vivo subcutaneous U87 nude mouse tumor model; design: species or system male nu/nu BALBc mice; details: 0.1 mg/kg thrice weekly, FIG. 4
Method: In vivo subcutaneous model. 10^6 U87 cells were injected into the right […] of male nu/nu BALBc mice (Charles River). Two days after inoculation, the mice received either 0.1 mg/kg ajulemic acid in 0.05 ml of safflower oil, or 0.05 ml safflower oil by oral administration. Thereafter, identical dosings were performed on each Monday, Wednesday, and Friday. When visible tumors appeared, the size of the tumors were estimated by averaging the values of two roughly perpendicular diameters measurements. Visible tumors were measured on the days of drug administration.
Whether ajulemic acid has in vivo antitumor activity was determined using a nude mouse tumor model. The growth of the human glioma cell line U87 injected subcutaneously in nude mice was assessed with and without ajulemic acid administration. For these experiments, ajulemic acid treatment was initiated two days after inoculation of 10^6 tumor cells in the mice. […] At day 25 post-inoculation, 5 of 5 control mice had tumors with a mean diameter of 16.3±3.2 mm, while the mean diameter in the treated group was 3.8±8.5 mm (n=5, p-0.015, t-test).

[22] = test system: C6 cells; test: Lipid incorporation assay (14C-arachidonic acid); assay type: cell-based; details: 25 μM, 48 hours

Structure (SMILES)	Percent inhibition of human cancer cell line growth in 48 hour MTT assay [2] [%]	Percent inhibition of human cancer cell line growth in 48 hour MTT assay [3] [%]	Percent inhibition of human cancer cell line growth in 48 hour MTT assay [4] [%]	Percent inhibition of human cancer cell line growth in 48 hour MTT assay [5] [%]	Percent inhibition of human cancer cell line growth in 48 hour MTT assay [6] [%]	Percent inhibition of human cancer cell line growth in 48 hour MTT assay [7] [%]	Percent inhibition of human cancer cell line growth in 48 hour MTT assay [9] [%]	Percent inhibition of human cancer cell line growth in 48 hour MTT assay [10] [%]	Inhibition level (mean±SD) over the human cancer cell lines [11] [%]	Percent inhibition of human cancer cell line growth in 48 hour MTT assay [12] [%]	Percent inhibition of human cancer cell line growth in 48 hour MTT assay [13] [%]	further results
CCCCCCC(C)(C)c1cc(O)c2c(c1)OC(C)(C)[C@@H]1CC=C(C(=O)O)C[C@@H]21 (single isomer, unassigned) [D-isomer of ajulemic acid]	–	–	–	–	–	–	–	–	–	–	–	Potency of D-isomer compared to L-isomer of ajulemic acid [1]: marked decrease in the potency
CCCCCc1cc(O)c2c(c1)OC(C)(C)[C@@H]1CC=C(C(=O)O)C[C@@H]21 [THC-11-oic acid, reference compound]	2 ± 1	21 ± 12	3 ± 1	5 ± 1	14 ± 3	61 ± 2	1 ± 1	7 ± 3	13.1±18.5	0	19 ± 5	Refractile bodies (in words), C6 glioma cells ([8]; 25 μM, 48 hours): no retractile bodies were noted
CCCCCCC(C)(C)c1cc(O)c2c(c1)OC(C)(C)[C@@H]1CC=C(C(=O)O)C[C@@H]21 [ajulemic acid, 1′,1′-dimethylheptyl-Δ^8-THC11-oic acid]	60 ± 2	60 ± 2	57 ± 3	54 ± 2	60 ± 2	76 ± 1	69 ± 2	74 ± 2	61.3 ±12.1	34 ± 1	69 ± 3	Change of effect on co-incubation with CB1 antagonist (in words) [14]: slight potentiation; Refractile bodies (in words), WI38 cells [15]: no retractile bodies were noted; Appearance of treated cells under electron microscopy [8]: neither apoptotic nor necrotic; Viability rate by trypan blue exclusion [16]: > 95%; Onset of PKC activity increase [17]: increased within five minutes; PKC activity relative to control ([17]; for one hour): approximately two-fold above that of control; Inhibition of WI38 cell proliferation [18]: 44%; Inhibition of C6 cell proliferation ([19]; 25 μM, two days, three different experiments): 65%; IC50 ([19]; C6 glioma cells, FIG. 1, read-out: IC50, inhibition of C6 glioma cells (MTT assay)): 55 µM; S (mean % ± SD) [20]: 13.0%; Tumor appearance and size (in words) [21]: A delay in both the appearance and size of tumors; Effectiveness compared to THC in the ten lines ([11]; p<0.05, in six of the ten lines tested): significantly more effective; Content of tri- and di-glyceride relative to controls [22]: over three-fold greater than in controls; Neutral lipids (14C-arachidonic acid incorporation) versus basal levels ([22]; p<0.05 Dunnett's test, FIG. 3): significant increase above basal levels
CCCCCc1cc(O)c2c(c1)OC(C)(C)[C@@H]1CCC(C)=C[C@@H]21 [Δ^9-THC, tetrahydrocannabinol, reference compound]	–	–	–	–	–	–	–	–	–	–	–	Decrease in potency on co-incubation with CB1 antagonist [14]: 150%

From patent publication US6914072B2, “Cannabinoid drugs” (Indevus Pharmaceuticals, Inc., priority 2000, dated 2005)
